Experimental data from patent publication US20230094952A1, “Method for Culturing Hematopoietic Stem Cells” (Sumitomo Pharma Co., Ltd., priority 2019, published 2023).

Key:
[1] = system: human hematopoietic stem cells (CD34-positive cells); assay: Confirmation test with human cells: 1-week culture of cord blood Lineage-negative CD34-positive cells, flow cytometry; type: cell-based
Excerpt: Collection of Human Cord Blood-Derived Mononuclear Cells Human cord blood-derived mononuclear cells were subjected to removal of erythrocytes and concentration treatment by using EasySep RBC Depletion Reagent (manufactured by […] Technologies Inc.) to obtain a cell population including hematopoietic stem cells.
First, a CD34-positive cell fraction was partially purified from the thus-obtained cell population including hematopoietic stem cells by using an EASYSep Human Cord Blood CD34 Positive Selection Kit II (manufactured by […] Technologies Inc.). The concentrated CD34-positive cells in a cell population enriched with hematopoietic stem cells and progenitor cells were stained with antibodies for the following cell surface markers.
Staining with the antibodies was performed at 4° C., and the cells were incubated for 30 minutes. For staining with the CD34 antibody, the cells were incubated for 90 minutes. Dead cell staining was performed with SYTOX Blue Dead Cell Stain (manufactured by Life Technologies) in accordance with a method recommended by the manufacturer.
Flow cytometry analysis and cell classification (cell sorting) were performed with a FACS Aria III cell sorter (manufactured by BD Biosciences), wherein fractions being Lineage-negative and CD34-positive were regarded as hematopoietic stem cells, and analysis was performed with the software FlowJo (manufactured by Tree Star, Inc.).
The cells after classification were seeded in a 96-well plate. […]
Each of artemether and the compounds of Example 1-23, Example 1-16, and Example 1-7 was prepared with the cell culture medium at nine final concentrations (0.001 μM, 0.003 μM, 0.01 μM, 0.03 μM, 0.1 μM, 0.3 μM, 1 μM, 3 μM, 10 μM), and added to the above human cells seeded after classification to a final volume of 200 μL/well to act thereon. UM171 (35 nM) was added to some of them to examine the presence or absence of synergistic effect. Thereafter, the cells were cultured in a CO2 incubator under conditions of 37° C. and 5% CO2 for 1 week. Viable cell counts and CD34-positive cell counts were analyzed.
After culture, the cells were stained with the antibodies for the surface markers CD34, CD11b, CD14, CD19, CD20, CD235ab, CD3, CD4, CD56, and CD8a, and the visible cell count and the ratio and post-growth cell count of a CD34 fraction (CD34^+, Lin^−) were measured by using a FACS Aria III cell sorter, and analyzed by using FlowJo (BD Biosciences). The CD34 fraction is a fraction including hematopoietic stem cells and multipotent progenitor cells as main components.

[2] = system: human hematopoietic stem cells (CD34-positive cells); assay: Functional test with human cells: colony assay (CFU-GEMM) after culture; type: cell-based
Method: Each of artemether and the compounds of Example 1-23, Example 1-16, and Example 1-7 was prepared with the cell culture medium at nine final concentrations (0.001 μM, 0.003 μM, 0.01 μM, 0.03 μM, 0.1 μM, 0.3 μM, 1 μM, 3 μM, 10 μM), and added to the above human cells seeded after classification to a final volume of 200 μL/well to act thereon. UM171 (35 nM) was added to some of them to examine the presence or absence of synergistic effect. Thereafter, the cells were cultured in a CO2 incubator under conditions of 37° C. and 5% CO2 for 1 week, collected, and then seeded in a 96-well plate to place one CD34-positive cell in each well by using a FACS Aria III cell sorter, and cultured with a MethoCult H4435 ([…] Technologies Inc.) for 2 weeks. After culture, each well was photographed with an optical microscope (manufactured by KEYENCE CORPORATION), and the colony count was determined by visual observation and the form of each colony was determined by visual observation. Colony Formation Unit-Granulocytes, Erythroids, Macrophages, Megakaryocytes (CFU-GEMM), which are derived from myeloid progenitor cells, the erythroid burst colony-forming cells Burst Forming Unit-Erythroids (BFU-E), the granulocyte/macrophage colony-forming cells Colony Formation Unit-Granulocytes, Macrophages (CFU-GM) were determined on the basis of the forms of colonies, and the numbers were counted.

[3] = UM171 (35 nM) and artemether 0.001 μM
[4] = UM171 (35 nM) and artemether 0.003 μM
[5] = UM171 (35 nM) and artemether 0.01 μM
[6] = UM171 (35 nM) and artemether 0.03 μM
[7] = UM171 (35 nM) and artemether 0.1 μM
[8] = UM171 (35 nM) and artemether 0.3 μM
[9] = UM171 (35 nM) and artemether 1 μM
[10] = compound 0.001 μM, 180 cells before culture, no UM171
[11] = compound 0.003 μM, 180 cells before culture, no UM171
[12] = compound 0.01 μM, 180 cells before culture, no UM171
[13] = compound 0.03 μM, 180 cells before culture, no UM171
[14] = compound 0.1 μM, 180 cells before culture, no UM171
[15] = compound 0.3 μM, 180 cells before culture, no UM171
[16] = compound 1 μM, 180 cells before culture, no UM171
[17] = compound 3 μM, 180 cells before culture, no UM171
[18] = compound 10 μM, 180 cells before culture, no UM171

For `CO[C@H]1O[C@@H]2O[C@@]3(C)CC[C@H]4[C@H](C)CC[C@@H]([C@H]1C)[C@@]24OO3` [Example 1-30, artemether, reference compound], the CD34-positive cell count [1, 3] was 36 cell, the Viable cell count [1, 3] was 301 cell and the CD34-positive cell count [1, 4] was 102 cell. For the same compound, the Viable cell count [1, 4] was 765 cell, the CD34-positive cell count [1, 5] was 43 cell and the Viable cell count [1, 5] was 323 cell. For the same compound, the CD34-positive cell count [1, 6] was 56 cell, the Viable cell count [1, 6] was 216 cell and the CD34-positive cell count [1, 7] was 93 cell. It also gave a Viable cell count [1, 7] of 376 cell, a CD34-positive cell count [1, 8] of 9 cell and a Viable cell count [1, 8] of 240 cell. The CD34-positive cell count [1, 9] was 0 cell, the Viable cell count [1, 9] was 31 cell and the CD34-positive cell count [1, 10] was 59 cell. The Viable cell count [1, 10] was 484 cell, the CD34-positive cell count [1, 11] was 88 cell and the Viable cell count [1, 11] was 921 cell. For the same compound, the CD34-positive cell count [1, 12] was 57 cell, the Viable cell count [1, 12] was 498 cell and the CD34-positive cell count [1, 13] was 23 cell. For the same compound, the Viable cell count [1, 13] was 298 cell, the CD34-positive cell count [1, 14] was 45 cell and the Viable cell count [1, 14] was 555 cell. For the same compound, the CD34-positive cell count [1, 15] was 61 cell, the Viable cell count [1, 15] was 550 cell and the CD34-positive cell count [1, 16] was 35 cell. For the same compound, the Viable cell count [1, 16] was 479 cell, the CD34-positive cell count [1, 17] was 26 cell and the Viable cell count [1, 17] was 380 cell. For the same compound, the CD34-positive cell count [1, 18] was 27 cell, the Viable cell count [1, 18] was 250 cell and the “Colony count (colony) after culture (CFU-GEMM)” value (from here on “Colony count (colony)”) [2, 3] was 40.1 colony. For the same compound, the “Colony count (colony)” value [2, 4] was 204.0 colony, the “Colony count (colony)” value [2, 5] was 53.8 colony and the “Colony count (colony)” value [2, 6] was 46.8 colony. For the same compound, the “Colony count (colony)” value [2, 7] was 94.0 colony, the “Colony count (colony)” value [2, 8] was 40.0 colony and the “Colony count (colony)” value [2, 9] was 0.0 colony. For the same compound, the “Colony count (colony)” value ([2]; compound 0.001 μM, 1 week culture then 2 weeks MethoCult H4435, no UM171) was 40.3 colony, the “Colony count (colony)” value ([2]; compound 0.003 μM, 1 week culture then 2 weeks MethoCult H4435, no UM171) was 61.4 colony and the “Colony count (colony)” value ([2]; compound 0.01 μM, 1 week culture then 2 weeks MethoCult H4435, no UM171) was 33.2 colony. The “Colony count (colony)” value ([2]; compound 0.03 μM, 1 week culture then 2 weeks MethoCult H4435, no UM171) was 34.8 colony, the “Colony count (colony)” value ([2]; compound 0.1 μM, 1 week culture then 2 weeks MethoCult H4435, no UM171) was 37.0 colony and the “Colony count (colony)” value ([2]; compound 0.3 μM, 1 week culture then 2 weeks MethoCult H4435, no UM171) was 36.7 colony. For the same compound, the “Colony count (colony)” value ([2]; compound 1 μM, 1 week culture then 2 weeks MethoCult H4435, no UM171) was 63.9 colony, the “Colony count (colony)” value ([2]; compound 3 μM, 1 week culture then 2 weeks MethoCult H4435, no UM171) was 31.7 colony and the “Colony count (colony)” value ([2]; compound 10 μM, 1 week culture then 2 weeks MethoCult H4435, no UM171) was 0.0 colony.
